Results on six compounds are retold here after patent EP4806903A1, “WHOLE-PROCESS TARGETING POLYPEPTIDE, PHARMACEUTICAL COMPLEX THEREOF, DRUG DELIVERY SYSTEM AND USE THEREOF” (Fudan University, priority 2023, dated 2025).

Data set [1] in a line: Maximum tolerated dose study. As to conditions: mouse, in vivo, iv; tail vein, 14 days monitoring; dose at which no mice died; expressed as DOX. Further details: species or system Male Balb/c mice. The protocol:
The body weight changes of the mice were recorded daily (relative body weight change = daily body weight / initial body weight), with continuous monitoring for 14 days to observe whether any mice died.

The nature of data set [2]: Saturation solubility in PBS. It is filed as physicochemical. The conditions noted are these: aqueous buffer, PBS pH 7.4, 37°C, calculated based on DOX.
Experimental: The mixture was incubated at 37°C for 24 hours, then filtered through a membrane of 0.22 µm. The filtrates were subsequently diluted 10-fold and 20-fold, respectively, and the concentration of DOX was measured.
The test system of data set [3] is GRP78 protein. Kind of data set: Western blot of GRP78 protein on the cell membrane of U87 cells. It is filed as cell-based. The protocol: After cells were subjected to various treatments, the culture medium was removed, and the cells were washed twice with pre-cooled PBS. The cells were then scraped off and collected into an EP tube. Membrane proteins were extracted using a cell membrane protein extraction kit, followed by centrifugation at 12,000 rpm at 4°C to obtain the supernatant, which was stored for later use. The total protein concentration was determined using the BCA assay, after which the sample was mixed with 5× loading buffer at a ratio of 4:1 and heated to denature the proteins. The samples were stored at -20°C for future use. Samples containing approximately 40 µg of protein were subjected to 15% polyacrylamide gel electrophoresis and then transferred onto polyvinylidene fluoride (PVDF) membranes. […]
After U87 cells were treated with free DOX at different concentrations for 48 hours, membrane proteins were extracted and detected using the method described above.
After U87 cells were treated with different concentrations of TMZ for 48 hours, membrane proteins were extracted and detected using the method described above.
After U87 cells were treated with 5 µg/mL TMZ for varying durations, membrane proteins were extracted and analyzed using the method described above.

For the next data set, the system named is Tumor cells U87. Kind of data set: Intracellular DOX detection in U87 cells. The data set is classed as cell-based. As to conditions: 4 hours, 37°C. The procedure:
Tumor cells U87 in the logarithmic growth phase and macrophages RAW264.7, both cultured as monolayers, were detached from the culture dishes by digestion with 0.25% trypsin. The single-cell suspensions were prepared in DMEM medium supplemented with 10% fetal bovine serum. Each well of a 6-well plate was seeded with 5 × 10^5 cells in a volume of 2 mL per well. The plates were then transferred to a CO2 incubator and cultured overnight at 37°C under conditions of 5% CO2 and saturated humidity. After overnight incubation, the culture medium was wholly aspirated from each well. DOX, pHA-AHX-VAP-DOX, and pHA-AOnHX-VAP-DOX (n = 1, 2, 3, 5) solutions were added to the wells, and the cells were incubated at 37°C for 4 hours. The supernatant was then discarded. Following cell collection by trypsinization, the cells were washed three times with PBS and counted. After the final wash, any remaining supernatant was wholly removed. To the cell pellet, acidified methanol (Vmethanol : Vmethanoic acid = 98:2) was added, and the cells were subjected to sonication. After centrifugation at 10,000 rpm for 10 minutes, the supernatant was collected and analyzed for DOX concentration.

In another data set the test system is U87 orthotopic glioma. The experiment in a line: In vivo pharmacodynamic study, survival of U87 orthotopic glioma mice. The conditions noted are these: single dose of DOX 1 mg/kg, intravenous, every other day from day 5. Further details: species or system nude mice. The procedure:
Approximately 20 g nude mice were anesthetized and fixed onto a stereotaxic apparatus. Orthotopic glioma mouse model was established by injecting 5 µL of U87 cell suspension (5×10^5 cells) with microsyringe into the striatum of the mice (0.6 mm anteroposterior to the bregma, 1.8 mm lateral to the midline, and 3 mm deep). On day 5 after tumor implantation, the mice were randomly divided into four groups, with 10 mice per group.

Data set [4] deals with GRP78 protein. Kind of data set: Western blot of GRP78 protein in tumors of orthotopic glioma mice. It is filed as in vivo, nude mice. As to conditions: TMZ 10 mg/mL by gavage, after 48 hours.
For a further data set, the system named is in situ glioma. Kind of data set: Efficacy of TMZ combined with peptide-DOX complex in in situ glioma. The conditions noted are these: TMZ 10 mg/kg by gavage Days 3-21; pHA-AO1HX-VAP-DOX equivalent to 3 mg/kg DOX tail vein Days 5-23; n = 10.
A short description of data set [5]: In vivo distribution in nude mouse model of orthotopic glioma. As to conditions: DOX dose 5 mg/kg, tail vein, 30 minutes; compared to free DOX. Further details: species or system nude mice. The protocol: Approximately 22 g nude mice were anesthetized and fixed onto a stereotaxic apparatus. An orthotopic glioma mouse model was established by injecting 5 µL of U87 cell suspension (8×10^5 cells) with microsyringe into the striatum of the mice (0.6 mm anteroposterior to the bregma, 1.8 mm lateral to the midline, and 3 mm ventral to the surface). Ten days after tumor implantation, the mice were administered DOX (5 mg/kg) or pHA-AOnHX-VAP-DOX (n = 1, 2, 3, 5; DOX dose: 5 mg/kg) via tail vein injection. Thirty minutes later, the mice were anesthetized, perfused with PBS, and the major organs including the brain, heart, liver, spleen, lungs, and kidneys were collected. The tissues from each organ were blotted dry with filter paper and weighed. Then, according to the weight of each organ, a specific volume of isopropanol containing 0.075 M HCl and 10% water was added, followed by homogenization. After overnight incubation at 4°C, the samples were centrifuged, and the supernatants were collected for analysis. […] As depicted in Figure 30, the accumulation of DOX in the heart was reduced by pHA-AOnHX-VAP-DOX (n = 1, 2, 3, 5), while the drug concentration in the blood was increased.

For data set [6], the target named is glucose-regulated protein GRP78 (Homo sapiens, UniProt P11021). The conditions noted are these: previously validated by research team; cited from earlier work.

≈ marks a conversion by molar mass, not a printed value. Where no end group is shown, it is not given here. [ ]: non-standard residue; d: D form.

Sequence of glucose-regulated protein GRP78 (P11021 19-654): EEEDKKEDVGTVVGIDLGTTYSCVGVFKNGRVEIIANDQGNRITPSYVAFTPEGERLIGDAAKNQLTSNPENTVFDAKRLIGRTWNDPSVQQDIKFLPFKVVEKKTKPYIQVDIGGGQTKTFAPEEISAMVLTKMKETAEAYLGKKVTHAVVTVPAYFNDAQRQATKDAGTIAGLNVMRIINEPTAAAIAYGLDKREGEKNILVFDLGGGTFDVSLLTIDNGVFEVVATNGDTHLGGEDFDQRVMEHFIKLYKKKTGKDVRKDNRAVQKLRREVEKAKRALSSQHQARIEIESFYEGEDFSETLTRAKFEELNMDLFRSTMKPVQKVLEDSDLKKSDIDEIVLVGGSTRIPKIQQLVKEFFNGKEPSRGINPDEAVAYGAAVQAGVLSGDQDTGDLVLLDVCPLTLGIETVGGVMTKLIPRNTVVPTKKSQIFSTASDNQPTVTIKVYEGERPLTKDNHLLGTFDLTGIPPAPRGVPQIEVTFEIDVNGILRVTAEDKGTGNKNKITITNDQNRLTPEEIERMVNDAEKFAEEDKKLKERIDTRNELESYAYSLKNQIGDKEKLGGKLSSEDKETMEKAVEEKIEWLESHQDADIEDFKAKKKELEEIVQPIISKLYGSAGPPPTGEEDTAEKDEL
Experimental for in situ glioma: The in situ glioma model was established as above, with the day of modeling set as Day 0. On Days 3, 5, 7, 9, 11, 13, 15, 17, 19, and 21, mice were administered TMZ by gavage at a single dose of 10 mg/kg.

`COc1cccc2c1C(=O)c1c(O)c3c(c(O)c1C2=O)C[C@@](O)(C(=O)CO)C[C@@H]3O[C@H]1C[C@H](N)[C@H](O)[C@H](C)O1` [DOX, doxorubicin] returned an MTD at 336 h in [1] of around 10 mg/kg. Moreover, the solubility at 24 h in [2] is 220 ± 30 µg/mL (≈ 405 µM). Besides, the “expression of GRP78 protein on the cell membrane surface of U87 cells” value with GRP78 protein [3] (different concentrations, 48 hours) is “significantly upregulated”. For the same compound, the “uptake by U87 cells (intracellular DOX)” value with Tumor cells U87 is recorded as “higher cellular uptake”. Besides, in the data set with U87 orthotopic glioma, the median survival time was 35.5 days.
`Cn1nnc2c(C(N)=O)ncn2c1=O` [TMZ, temozolomide]: in the data set on GRP78 protein [4], the “expression of GRP78 protein in tumor tissue relative to control group” value was determined as 1.45 times. In addition, the median survival time in the data set on in situ glioma is 48 days. Besides, the “time after which GRP78 protein on the cell membrane began to significantly upregulate” value in the data set with GRP78 protein [3] (5 µg/mL TMZ, varying durations up to 48 hours) turned out to be 12 h.
Turning to `COc1cccc2c1C(=O)c1c(O)c3c(c(O)c1C2=O)C[C@@](O)(C(CO)=NNC(=O)CCCCCN1C(=O)CC(SC[C@H](NC(=O)CCOCCOCCNC(=O)c2ccc(O)cc2)C(=O)N2CCC[C@@H]2C(=O)N[C@H](C)C(=O)N[C@@H](C(=O)N[C@H](CCCNC(=N)N)C(=O)N[C@@H](C(=O)N[C@H](CC(N)=O)C(=O)N[C@H](CO)C(=O)O)[C@H](C)O)C(C)C)C1=O)C[C@@H]3O[C@H]1C[C@H](N)[C@H](O)[C@H](C)O1` (stereo partly drawn) [pHA-AO2HX-VAP-DOX], in [5], the “brain accumulation of DOX” value is reported as “greatest increase”.
For “^DVAP: D-type amino acid sequence ^DP^DA^DV^DR^DT^DN^DS, SEQ ID NO: 3 ([dP][dA][dV][dR][dT][dN][dS])”, the “binding affinity to glucose-regulated protein GRP78” value (“binding affinity” for short) in data set [6] is reported as “high binding affinity”.
In the case of “^LVAP: L-type amino acid sequence SNTRVAP, SEQ ID NO: 1”, in [6], the “binding affinity” value was “high binding affinity”.
For “^SVAP: D-type amino acid sequence ^DS^DN^DT^DR^DV^DA^DP, SEQ ID NO: 4 (SNTRVAP; all D-amino acids; VARIANT 1..7: note = D type amino acid)”, in data set [6], the “binding affinity” value was “high binding affinity”.
